Test results: patent US20220370606A1, “Combination Treatments Of Cancer Comprising A TLR Agonist” (Pfizer Inc., priority 2018, published 2022)

Tests used:
Format in all cases: in vivo, mouse
B16F10 melanoma tumors [1] = assay: Example 1: TLR3 agonist with anti-OX40 and/or anti-4-1BB antibody, murine B16F10 melanoma model; conditions: poly(I:C) 2.5 mg/kg it x1 day 9, anti-OX40 5 mg/kg, anti-4-1BB 3 mg/kg ip x3
Procedure: This example illustrates the therapeutic activity of a TLR3 agonist in combination with one or both of: i) an agonist anti-OX40 antibody and ii) an agonist anti-4-1BB antibody in a murine B16F10 melanoma model.
(§1) Six to eight week old female C57BL/6 mice were purchased from the Jackson Laboratories. All animals were housed in a pathogen free vivarium facility at Pfizer and experiments were conducted according to the protocols in accordance with the Institutional Animal Care and Use Committee (IACUC) guidelines.
(§2) The B16F10 melanoma cell line was purchased from American Type Culture Collection (ATCC). Cells were cultured in Dulbecco's Modified Eagle's Medium (DMEM) supplemented with 10% fetal bovine serum (FBS), 2 mM L-glutamine at 37° C. in 5% carbon dioxide (CO2), and IMPACT-tested for pathogens at Research Animal Diagnostic Laboratory (RADIL) (Columbia, Mo.). Pathogen-free cells growing in an exponential growth phase were harvested and used for tumor inoculation.
(§3) The TLR3 agonist was polyinosine-polycytidylic acid [poly(I:C)], high molecular weight [a synthetic analog of double-stranded RNA (dsRNA)], purchased from InvivoGen. Poly(I:C) was dosed at 2.5 mg/kg, in phosphate buffered saline (PBS) (Life Technologies), intratumorally (it) for one dose 9 days after tumor inoculation.
(§4) Therapeutic mouse anti-mouse 4-1BB mAb (mouse immunoglobulin G1 [mIgG1]), derived from the parental clone MAB9371 (R&D Systems), was prepared in-house. Therapeutic mouse anti-OX40 antibodies with the mIgG1 isotype (anti-OX40 mIgG1) were derived from parental clone OX86 in house. Anti-OX40 antibody and anti-4-1BB antibodies were dosed at 5 mg/kg and 3 mg/kg, respectively, in phosphate buffered saline (PBS) (Life Technologies), and dosed at 0.2 mL per mouse intraperitoneally (ip) for 3 doses 3 to 4 days apart.
(§5) C57BL/6 mice were inoculated subcutaneously at the right flank with 0.3 x 10^6 B16F10 cells in 0.1 mL of PBS. When tumors reached target size, mice were randomized into treatment groups. Treatment was started on the same day as randomization. Tumor size was measured 3-4 times weekly in 2 dimensions using a caliper, and the volume was calculated in cubic millimeters using the formula: V=0.5 L×W^2 where L is the longest diameter of the tumor and W is the diameter perpendicular to L. Body weight was recorded weekly.
Results are shown in FIGS. 1A-1H and summarized in Table 1 below [mean tumor size±standard deviation (SD)]. Statistical analyses were performed using GraphPad Prism 6.0. 2-way ANOVA was applied to compare the statistical differences among multiple groups relative to the isotype control or other treatment groups. P <0.05 was considered as significant difference. Tumor measurements are in mm^3. For most treatment groups, more days post-tumor inoculation (also referred to as “days post implantation”) are shown in FIGS. 1A-1 H than in the corresponding information in Table 1 (due to the reduction in the number of mice in most groups over the course of the study, and the increase in SD with a reduced number of mice).

B16F10 melanoma tumors [2] = assay: Example 3A: TLR3 agonist with anti-PD-1, anti-OX40, anti-4-1BB antibodies, murine B16F10 melanoma model; conditions: poly(I:C) 2.5 mg/kg it x1 day 9, anti-PD-1 15, anti-OX40 5, anti-4-1BB 3 mg/kg ip x3
Text: This example illustrates the therapeutic activity of a TLR3 agonist in combination with i) an antagonist anti-PD-1 antibody; ii) an antagonist anti-PD-1 antibody and an agonist anti-OX40 antibody; iii) an antagonist anti-PD-1 antibody and an agonist anti-4-1-BB antibody; and iv) an antagonist anti-PD-1 antibody, an agonist anti-4-1-BB antibody, and an agonist anti-OX40 antibody in a murine B16F10 melanoma model.
as §1
as §2, with “MO).” for “Mo.).”
as §3
as §4, with “in house. Therapeutic mouse anti-mouse PD-1 mAb (mIgG1) was prepared in-house. Anti-PD-1, anti-OX40 antibody and” for “in house. Anti-OX40 antibody and”, “dosed at 15 mg/kg, 5 mg/kg” for “dosed at 5 mg/kg”
as §5, with “0.3×10^6” for “0.3 x 10^6”
Results from Example 3A are shown in FIGS. 3A-3L and summarized in Table 3 below [mean tumor size±standard deviation (SD)]. Statistical analyses were performed using GraphPad Prism 6.0. 2-way ANOVA was applied to compare the statistical differences among multiple groups relative to the isotype control or other treatment groups. P<0.05 was considered as significant difference. Tumor measurements are in mm^3. For most treatment groups, more days post-tumor inoculation (also referred to as “days post implantation”) are shown in FIGS. 3A-3L than in the corresponding information in Table 3 (due to the reduction in the number of mice in most groups over the course of the study, and the increase in SD with a reduced number of mice).

[3] = tested on: dendritic cells in the spleen (CD11c+/CD11b+/CD8+ cells); assay: Example 5: activated dendritic cells in the spleen of B16F10 tumor mice (FACS); conditions: 24 hours after treatment, 5 mg/kg, mean from 5 mice
Procedure: (§6) This example illustrates activation of immune cells in a mouse tumor model in response to a TLR3 or TLR9 agonist.
as §1, §2
(§7) The TLR3 agonist was polyinosine-polycytidylic acid [poly(I:C)], high molecular weight [a synthetic analog of double-stranded RNA (dsRNA)], purchased from InvivoGen. The TLR9 agonist was CpG24555
(§8) On day 0, C57BL/6 mice were inoculated subcutaneously at the right flank with 5×10^5 B16F10 cells in PBS. […] The treatment groups were 1) PBS (control); 2) poly(I:C) (TLR3 agonist); 3) CpG24555 (TLR9 agonist). Treatment was started on the same day as randomization. Poly(I:C) and CpG24555 were dosed at 5 mg/kg, in phosphate buffered saline (PBS) (Life Technologies).
(§9) 24 hours after treatment, the mice were euthanized and their spleen, draining lymph nodes, and B16F10 tumor were harvested. The harvested spleen, draining lymph nodes, and B16F10 tumor were dissociated to single cell suspensions, and then stained for evaluation of multiple markers by FACS analysis. To evaluate dendritic cell activation, cells were incubated with anti-CD11c, anti-CD11b, and anti-CD8 mAbs, and additionally one of anti-CD40, anti-CD86, or anti-PD-L1 mAbs. To evaluate effector T cell activation, cells were incubated with anti-CD8 and anti-CD44 mAbs, and additionally one of anti-OX40 or anti-4-1BB mAbs. […]

[4] = tested on: dendritic cells in the draining lymph nodes (CD11c+/CD11b+/CD8+ cells); assay: Example 5: activated dendritic cells in the draining lymph nodes of B16F10 tumor mice (FACS); conditions: 24 hours after treatment, 5 mg/kg, mean from 5 mice
Procedure: as §6, §1, §2, §7, §8, §9

[5] = tested on: effector T cells in the tumor (TILs) (CD8+/CD44+ cells); assay: Example 5: activated effector T cells in the tumor (TILs) of B16F10 tumor mice (FACS); conditions: 24 hours after treatment, 5 mg/kg, mean from 5 mice
Procedure: as §6, §1, §2, §7
On day 0, C57BL/6 mice were inoculated subcutaneously at the right flank with 5×10^5 B16F10 cells in PBS. […] The treatment groups were 1) PBS (control); 2) poly(I:C) (TLR3 agonist); 3) CpG24555 (TLR9 agonist). Treatment was started on the same day as randomization. […]

Q: Which “Mean Tumor Size” value (B16F10 melanoma tumors [1]; day 9 post-tumor inoculation) does the source give for “polyinosine-polycytidylic acid [TLR3 agonist]” here?
A: 76 mm^3

Q: What about the “Mean Tumor Size” value (B16F10 melanoma tumors [1]; day 10 post-tumor inoculation) of the same substance?
A: 116 mm^3

Q: What about the “Mean Tumor Size” value (B16F10 melanoma tumors [1]; day 12 post-tumor inoculation) of the same substance?
A: 151 mm^3

Q: What about the “Mean Tumor Size” value (B16F10 melanoma tumors [1]; day 14 post-tumor inoculation) of the same substance?
A: 196 mm^3

Q: And the “Mean Tumor Size” value (B16F10 melanoma tumors [1]; day 16 post-tumor inoculation)?
A: 309 mm^3

Q: And the “Mean Tumor Size” value (B16F10 melanoma tumors [1]; day 18 post-tumor inoculation)?
A: 405 mm^3

Q: And the “Mean Tumor Size” value (B16F10 melanoma tumors [1]; day 20 post-tumor inoculation)?
A: 678 mm^3

Q: And the “Mean Tumor Size” value (B16F10 melanoma tumors [2]; day 9 post-tumor inoculation)?
A: 74 mm^3

Q: What about the “Mean Tumor Size” value (B16F10 melanoma tumors [2]; day 13 post-tumor inoculation) of the same substance?
A: 156 mm^3

Q: What about the “Mean Tumor Size” value (B16F10 melanoma tumors [2]; day 15 post-tumor inoculation) of the same substance?
A: 236 mm^3

Q: What about the “Mean Tumor Size” value (B16F10 melanoma tumors [2]; day 17 post-tumor inoculation) of the same substance?
A: 349 mm^3

Q: And the “Mean Tumor Size” value (B16F10 melanoma tumors [2]; day 20 post-tumor inoculation)?
A: 796 mm^3

Q: What about the “Mean Tumor Size” value (B16F10 melanoma tumors [2]; day 22 post-tumor inoculation) of the same substance?
A: 1206 mm^3

Q: And the “% CD40+ of CD11c+/CD11b+/CD8+ cells (activated dendritic cells)” value [3]?
A: 20%

Q: What about the “% CD86+ of CD11c+/CD11b+/CD8+ cells (activated dendritic cells)” value [3] of the same substance?
A: 22.2%

Q: And the “% PD-L1+ of CD11c+/CD11b+/CD8+ cells (activated dendritic cells)” value [3]?
A: 23%

Q: What about the “% CD40+ of CD11c+/CD11b+/CD8+ cells (activated dendritic cells)” value [4] of the same substance?
A: 9.9%

Q: What about the “% CD86+ of CD11c+/CD11b+/CD8+ cells (activated dendritic cells)” value [4] of the same substance?
A: 7.5%

Q: And the “% PD-L1+ of CD11c+/CD11b+/CD8+ cells (activated dendritic cells)” value [4]?
A: 9%

Q: And the “% 4-1BB+ of CD8+/CD44+ cells (activated effector T cells)” value [5]?
A: 36.8%

Q: What about the “% OX-40+ of CD8+/CD44+ cells (activated effector T cells)” value [5] of the same substance?
A: 55.3%
